The numbers were not newly measured in patent US20040147564A1, “Combinations of glimepiride and the thiazolidinedione for treatment of diabetes” (priority 2003, published 2004), which cites them from elsewhere.

Some results are limits rather than exact numbers.

Assay in data set [1]: not given
The source holds these as a separate data set.

Assay in data set [2]: not given
This is another data set of the same source.

On to `CN(CCOc1ccc(CC2SC(=O)NC2=O)cc1)c1ccccn1` (stereo not drawn) [Rosiglitazone, rosiglitazone], for which the “Solubility in buffered aqueous solution” value (pH of 2.3) is on record as “readily soluble”.
In the case of `CCC1=C(C)CN(C(=O)NCCc2ccc(S(=O)(=O)NC(=O)N[C@H]3CC[C@H](C)CC3)cc2)C1=O` [glimepiride, 1-[[p-[2-(3-ethyl-4-methyl-2-oxo-3-pyrroline-1-carboxamido)ethyl]phenyl]sulfonyl]-3-(trans-4-methylcyclohexyl)urea], for the setting “at 25° C.”, the Solubility in water was ≤ 100 µg/mL. Besides, in data set [1] (at steady state after oral administration), the Elimination half-life is 5 to 8 h. Besides, the Terminal half-life entry in data set [1] (in vivo) is “more than 5 hours”. In addition, the “Reduction of absolute HbA1c levels” value in data set [2] (human, in vivo) was 1-2%. Besides, the “Increase of plasma insulin levels” value in data set [2] (patients with type 2 diabetes) is listed as ≤ 50%.
